Values of other authors in patent publication US12329730B2, “Thermoresponsive hydrogel containing polymer microparticles for controlled drug delivery” (UNIVERSITY OF PITTSBURGH—OF THE COMMONWEALTH SYSTEM OF …, priority 2017, dated 2025).
≈ marks a conversion by molar mass, not a printed value.

System: Streptococcus pneumoniae and Haemophilus influenzae
Details: Jacobs et al. 1999

SMILES: O=C(O)c1cn(C2CC2)c2cc(N3CCNCC3)c(F)cc2c1=O [ciprofloxacin]
- minimum inhibitory concentration (MIC): 2 µg/mL (≈ 6.04 µM)
